Among the data in ChEMBL document CHEMBL1146452, “Saponins from the flower buds of Buddleja officinalis” (J Nat Prod, 2004) are IC50 values, retold here.

The assay relates to HL-60. Description: Cytotoxicity against human HL60 cells by MTT assay. The class given is functional, cell-based.
Take `C[C@@H]1O[C@@H](O[C@H]2[C@H](O)[C@@H](O)[C@H](O[C@H]3[C@@H](O)[C@@H](C)O[C@@H](O[C@H]4CC[C@]5(C)C6=CC=C7[C@@H]8CC(C)(C)CC[C@]8(CO)[C@@H](O)C[C@@]7(C)[C@]6(C)CC[C@H]5[C@]4(C)CO)[C@@H]3O[C@@H]3O[C@H](CO)[C@@H](O)[C@H](O)[C@H]3O)O[C@@H]2CO)[C@H](O)[C@H](O)[C@H]1O` [MIMENGOSIDE E]: the IC50 (usually the concentration that gives 50% inhibition) was determined as 16.8 µM.
On to `C[C@H]1O[C@@H](O[C@H]2CC[C@]3(C)C4=CC=C5[C@@H]6CC(C)(C)CC[C@]6(CO)[C@@H](O)C[C@@]5(C)[C@]4(C)CC[C@H]3[C@]2(C)CO)[C@H](O)[C@@H](O[C@@H]2O[C@H](CO)[C@@H](O[C@@H]3OC[C@@H](O)[C@H](O)[C@H]3O)[C@H](O)[C@H]2O)[C@H]1O` [MIMENGOSIDE F], for which half-maximal inhibition (IC50) was put at 22.7 µM.
Under `C[C@@H]1O[C@@H](O[C@H]2[C@H](O)[C@@H](O)[C@H](O[C@H]3[C@@H](O)[C@@H](C)O[C@@H](O[C@H]4CC[C@@]5(C)[C@@H](CC[C@]6(C)[C@@H]5C=CC5=C7CC(C)(C)CC[C@]7(CO)[C@@H](O)C[C@]56C)[C@]4(C)CO)[C@@H]3O[C@@H]3O[C@H](CO)[C@@H](O)[C@H](O)[C@H]3O)O[C@@H]2CO)[C@H](O)[C@H](O)[C@H]1O` [MIMENGOSIDE C] stands 23.2 µM; under `C[C@H]1O[C@@H](O[C@H]2CC[C@@]3(C)[C@@H](CC[C@]4(C)[C@@H]3C=CC3=C5CC(C)(C)CC[C@]5(CO)[C@@H](O)C[C@]34C)[C@]2(C)CO)[C@H](O)[C@@H](O[C@@H]2O[C@H](CO)[C@@H](O[C@@H]3OC[C@@H](O)[C@H](O)[C@H]3O)[C@H](O)[C@H]2O)[C@H]1O` [MIMENGOSIDE D], 26.7 µM.
